Assay results as given in US20160177395A1, “BIOMARKERS FOR THE PREDICTION OF RENAL INJURY” (priority 2007, published 2016).
Several values for one entry are separate records, joined by “and”; a condition that tells them apart may be missing. Equal entries are not always repeated.

Columns and labels:
[1] = tested on: kidney tissues of treated or untreated rats; experiment: Real-time qRT-PCR of signature amplicons, validation stage, labeled and un-labeled samples (Table 23); details: for H31883_DB71_seg13 normalized qRT-PCR result / MUSCYCG1R_DB81_seg19-20 normalized qRT-PCR result / W41270_DB81_seg11 normalized qRT-PCR result: un-labeled sample, one line per animal; for AI045075_DB71_seg6 normalized qRT-PCR expression (Interferon stimulated exonuclease 20 (ISG20) transcript) / H31883_DB71_seg13 normalized qRT-PCR expression (Cyclin-G1 (CCNG1) transcript) / MUSCYCG1R_DB81_seg19-20 normalized qRT-PCR expression / W41270_DB81_seg11 normalized qRT-PCR expression (tumor necrosis factor receptor superfamily, member 12a transcript) / W64472_DB81_seg2 normalized qRT-PCR expression (Interferon stimulated exonuclease 20 (ISG20) transcript) / W83813_DB81_seg27 normalized qRT-PCR expression: un-labeled samples, kidney of individual male/female rats
Source text: New primers were designed for part of the transcripts, and new conditions for several qRT-PCR reactions were used, as described below.
The measurements were normalized in two steps. First—according to the house-keeping-genes normalization factor, and second—each plate was normalized according to ratio of the intensity measurements from samples appearing in it and in the shuffled (normalization) plate (Table 25 provides the plates details and the section “Inter-Plate Normalization” provides details of the normalization process). The normalized values were further scaled by a factor, for ease of viewing.
RT was prepared and qRT-PCR performed and analyzed as described hereinabove. qRT-PCR was performed for the four genes comprising the signature of the discovery stage described in Table 13. Two amplicons were tested for each gene—one representing the wild-type transcript, and another representing an alternative splice variant. Each amplicon was measured using the labeled samples described in Table 9 herein, as well as the un-labeled samples. Samples from both groups (labeled and un-labeled) were tested in seven 96 well plates as described in Table 25. In order to correct possible run to run variations, the following controls were added: 1. several samples were repeated in all 96 wells plates; 2. control shuffled plate was designed which combined samples from all seven test plates.
To account for possible differences of qRT-PCR measurements between the different plates due to experimental artifacts, a normalization plate was planned. This plate, designated hereinabove ‘shuffled plate’, contained samples from all other plates. Real Time PCR was performed on this plate using the primers appropriate for all candidates in tables 26 and 27. For each other plate (plates 1-7 above) and each amplicon, the samples appearing also in the shuffled plate were examined—the ratio between the transcript abundance as measured in the plate to the abundance as measured in the shuffled plate was calculated, outliers were manually removed, and the geometric mean of the left ratios was taken as an additional multiplicative normalization factor for the plate and amplicon.

[2] = tested on: kidney; experiment: Renal histopathology of rats treated with T1, T2, T3; format: in vivo, rat; details: rat, in vivo
Procedure: Each group consisted of 6 male and 6 female rats. The additional groups consisted of 6 males and 6 female rats treated with control compound for a single day and for five days, as described in Table 24.
T2 “no observed effect level” (NOEL, i.e., the maximal dose at which no toxic effect is visible) is 15 mg/kg.
At autopsy, both kidneys of each animal were removed and each kidney was cross sectioned. Half of each kidney was sent to RNA extraction and analysis.

[3] = Ds1, Day1, oral gavage, female rat kidney
[4] = Ds1, Day1, oral gavage, male rat kidney
[5] = Ds1, Day5, oral gavage, female rat kidney
[6] = Ds1, Day5, oral gavage, male rat kidney
[7] = Ds2, Day1, oral gavage, female rat kidney
[8] = Ds2, Day1, oral gavage, male rat kidney
[9] = Ds2, Day5, oral gavage, female rat kidney
[10] = Ds2, Day5, oral gavage, male rat kidney

Nc1nc2ccc(OC(F)(F)F)cc2s1 [T3, 6-(trifluoromethoxy)benzothiazol-2-amine]
H31883_DB71_seg13 normalized qRT-PCR result [1, 3]: 0.394 and 0.356 and 0.205
MUSCYCG1R_DB81_seg19-20 normalized qRT-PCR result [1, 3]: 0.85 and 1.252 and 0.37
W41270_DB81_seg11 normalized qRT-PCR result [1, 3]: 0.859 and 1.064 and 0.507
H31883_DB71_seg13 normalized qRT-PCR result [1, 4]: 0.898 and 0.512 and 0.989 and 0.789
MUSCYCG1R_DB81_seg19-20 normalized qRT-PCR result [1, 4]: 0.918 and 0.845 and 1.025 and 0.713
W41270_DB81_seg11 normalized qRT-PCR result [1, 4]: 0.567 and 1.106 and 1.844 and 0.808
H31883_DB71_seg13 normalized qRT-PCR result [1, 5]: 0.701 and 1.155 and 0.791 and 1.096
MUSCYCG1R_DB81_seg19-20 normalized qRT-PCR result [1, 5]: 0.501 and 0.727 and 0.928 and 1.021
W41270_DB81_seg11 normalized qRT-PCR result [1, 5]: 0.479 and 0.546 and 0.601 and 0.677
H31883_DB71_seg13 normalized qRT-PCR result [1, 6]: 1.054 and 0.818 and 0.72
MUSCYCG1R_DB81_seg19-20 normalized qRT-PCR result [1, 6]: 1.285 and 1.133 and 1.175
W41270_DB81_seg11 normalized qRT-PCR result [1, 6]: 0.88 and 0.8 and 0.499
H31883_DB71_seg13 normalized qRT-PCR result [1, 7]: 0.874 and 0.929 and 1.454
MUSCYCG1R_DB81_seg19-20 normalized qRT-PCR result [1, 7]: 1.132 and 1.211 and 0.575
W41270_DB81_seg11 normalized qRT-PCR result [1, 7]: 0.847 and 1.043 and 1.227
H31883_DB71_seg13 normalized qRT-PCR result [1, 8]: 0.276 and 0.164 and 0.218 and 0.211
MUSCYCG1R_DB81_seg19-20 normalized qRT-PCR result [1, 8]: 1.479 and 0.566 and 1.063 and 1.117
W41270_DB81_seg11 normalized qRT-PCR result [1, 8]: 2.291 and 1.042 and 1.597 and 1.35
H31883_DB71_seg13 normalized qRT-PCR result [1, 9]: 0.81 and 0.711 and 1.599 and 1.018
MUSCYCG1R_DB81_seg19-20 normalized qRT-PCR result [1, 9]: 0.666 and 0.977 and 1.436 and 0.58
W41270_DB81_seg11 normalized qRT-PCR result [1, 9]: 0.587 and 0.623 and 1.24 and 0.704
H31883_DB71_seg13 normalized qRT-PCR result [1, 10]: 1.103 and 0.911
MUSCYCG1R_DB81_seg19-20 normalized qRT-PCR result [1, 10]: 0.765 and 1.037
W41270_DB81_seg11 normalized qRT-PCR result [1, 10]: 0.494 and 3.181
AI045075_DB71_seg6 normalized qRT-PCR expression (Interferon stimulated exonuclease 20 (ISG20) transcript) ([1]; dose Ds1, Day1, oral gavage): 0.354 and 1.103 and 0.678 and 0.596
H31883_DB71_seg13 normalized qRT-PCR expression (Cyclin-G1 (CCNG1) transcript) ([1]; dose Ds1, Day1, oral gavage): 0.919 and 0.764 and 0.611 and 0.663 and 0.569 and 1.366 and 0.637 and 0.949 and 0.7 and 0.582 and 1.074
MUSCYCG1R_DB81_seg19-20 normalized qRT-PCR expression ([1]; dose Ds1, Day1, oral gavage): 0.96 and 0.232 and 0.183 and 1.044 and 1.137 and 0.132 and 0.134 and 0.767 and 0.441 and 0.114 and 0.726
W41270_DB81_seg11 normalized qRT-PCR expression (tumor necrosis factor receptor superfamily, member 12a transcript) ([1]; dose Ds1, Day1, oral gavage): 0.64 and 0.457 and 0.575 and 0.374 and 0.468 and 0.465 and 0.344 and 0.568 and 0.551 and 0.282 and 0.649
W64472_DB81_seg2 normalized qRT-PCR expression (Interferon stimulated exonuclease 20 (ISG20) transcript) ([1]; dose Ds1, Day1, oral gavage): 0.483 and 1.31 and 1.296 and 0.52
W83813_DB81_seg27 normalized qRT-PCR expression ([1]; dose Ds1, Day1, oral gavage): 0.322 and 0.663 and 0.497 and 0.402
AI045075_DB71_seg6 normalized qRT-PCR expression (Interferon stimulated exonuclease 20 (ISG20) transcript) ([1]; dose Ds1, Day5, oral gavage): 0.615 and 1.082 and 1.102 and 1.032
H31883_DB71_seg13 normalized qRT-PCR expression (Cyclin-G1 (CCNG1) transcript) ([1]; dose Ds1, Day5, oral gavage): 1.65 and 1.003 and 1.338 and 0.576 and 1.082 and 1.358 and 1.585 and 0.946 and 1.094 and 1.3 and 1.301
MUSCYCG1R_DB81_seg19-20 normalized qRT-PCR expression ([1]; dose Ds1, Day5, oral gavage): 0.649 and 0.716 and 1.035 and 1.226 and 0.857 and 0.625 and 0.525 and 0.398 and 1.413 and 0.62 and 0.638
W41270_DB81_seg11 normalized qRT-PCR expression (tumor necrosis factor receptor superfamily, member 12a transcript) ([1]; dose Ds1, Day5, oral gavage): 0.722 and 1.807 and 0.483 and 0.899 and 0.832 and 1.015 and 0.699 and 0.495 and 1.093 and 0.482 and 1.957
W64472_DB81_seg2 normalized qRT-PCR expression (Interferon stimulated exonuclease 20 (ISG20) transcript) ([1]; dose Ds1, Day5, oral gavage): 0.852 and 1.176 and 1.034 and 0.822
W83813_DB81_seg27 normalized qRT-PCR expression ([1]; dose Ds1, Day5, oral gavage): 0.754 and 1.146 and 1.388 and 0.659
AI045075_DB71_seg6 normalized qRT-PCR expression (Interferon stimulated exonuclease 20 (ISG20) transcript) ([1]; dose Ds2, Day1, oral gavage): 0.444 and 1.146 and 0.527
H31883_DB71_seg13 normalized qRT-PCR expression (Cyclin-G1 (CCNG1) transcript) ([1]; dose Ds2, Day1, oral gavage): 0.802 and 0.969 and 0.632 and 1.119 and 0.923 and 0.767 and 1.13 and 1.47 and 0.662 and 0.643
MUSCYCG1R_DB81_seg19-20 normalized qRT-PCR expression ([1]; dose Ds2, Day1, oral gavage): 0.92 and 0.203 and 0.275 and 2.153 and 0.29 and 0.152 and 1.45 and 2.313 and 0.798 and 0.158
W41270_DB81_seg11 normalized qRT-PCR expression (tumor necrosis factor receptor superfamily, member 12a transcript) ([1]; dose Ds2, Day1, oral gavage): 0.49 and 0.347 and 0.174 and 0.912 and 0.418 and 0.359 (2×) and 0.667 and 0.956 and 0.897
W64472_DB81_seg2 normalized qRT-PCR expression (Interferon stimulated exonuclease 20 (ISG20) transcript) ([1]; dose Ds2, Day1, oral gavage): 0.659 and 1.566 and 0.602
W83813_DB81_seg27 normalized qRT-PCR expression ([1]; dose Ds2, Day1, oral gavage): 0.67 and 0.137 and 0.761
AI045075_DB71_seg6 normalized qRT-PCR expression (Interferon stimulated exonuclease 20 (ISG20) transcript) ([1]; dose Ds2, Day5, oral gavage): 0.37 and 1.451 and 0.53
H31883_DB71_seg13 normalized qRT-PCR expression (Cyclin-G1 (CCNG1) transcript) ([1]; dose Ds2, Day5, oral gavage): 0.942 and 0.718 and 1.058 and 1.087 and 2.34 and 1.259 and 0.705 and 0.846 and 0.949
MUSCYCG1R_DB81_seg19-20 normalized qRT-PCR expression ([1]; dose Ds2, Day5, oral gavage): 1.567 and 0.875 and 1.708 and 1.024 and 1.119 and 1.475 and 1.004 and 0.658 and 1.003
W41270_DB81_seg11 normalized qRT-PCR expression (tumor necrosis factor receptor superfamily, member 12a transcript) ([1]; dose Ds2, Day5, oral gavage): 0.762 and 1.066 and 1.119 and 0.472 and 0.766 and 0.944 and 0.363 and 0.605 and 0.43
W64472_DB81_seg2 normalized qRT-PCR expression (Interferon stimulated exonuclease 20 (ISG20) transcript) ([1]; dose Ds2, Day5, oral gavage): 0.368 and 0.779 and 0.656
W83813_DB81_seg27 normalized qRT-PCR expression ([1]; dose Ds2, Day5, oral gavage): 0.729 and 0.728 and 0.933
Renal damage [2]: no renal damage after up to 35 days of treatment
